Experimental data reported in PubChem BioAssay (NCI).
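Method: 48-hour compound exposure of cells in 96-well plates, five concentrations, linear interpolation of endpoints. TGI is the concentration that stops growth completely.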

Columns and labels:
Test in all cases: inhibition of tumour cell growth, NCI panel, 48 h
HS 578T breast = system: HS 578T breast
HCT-15 colon = system: HCT-15 colon
SNB-19 CNS = system: SNB-19 CNS
SK-OV-3 ovarian = system: SK-OV-3 ovarian
M14 melanoma = system: M14 melanoma
HT29 colon = system: HT29 colon
UACC-257 melanoma = system: UACC-257 melanoma
MDA-N = system: MDA-N
ACHN renal = system: ACHN renal
HOP-62 NSCLC = system: HOP-62 NSCLC
CAKI-1 renal = system: CAKI-1 renal
SF-539 CNS = system: SF-539 CNS
PC-3 prostate = system: PC-3 prostate
SR leukemia = system: SR leukemia
RPMI-8226 leukemia = system: RPMI-8226 leukemia
MDA-MB-435 = system: MDA-MB-435
OVCAR-3 ovarian = system: OVCAR-3 ovarian
DU-145 prostate = system: DU-145 prostate
COLO 205 colon = system: COLO 205 colon
RXF 393 renal = system: RXF 393 renal
SF-268 CNS = system: SF-268 CNS
K-562 leukemia = system: K-562 leukemia
KM12 colon = system: KM12 colon
SW-620 colon = system: SW-620 colon
SN12C renal = system: SN12C renal
OVCAR-4 ovarian = system: OVCAR-4 ovarian
786-0 renal = system: 786-0 renal
UACC-62 melanoma = system: UACC-62 melanoma
U251 CNS = system: U251 CNS
NCI-H23 lung = system: NCI-H23 lung
EKVX NSCLC = system: EKVX NSCLC
MCF7 breast = system: MCF7 breast
MDA-MB-231 breast = system: MDA-MB-231 breast
SK-MEL-5 melanoma = system: SK-MEL-5 melanoma
IGROV1 ovarian = system: IGROV1 ovarian
OVCAR-8 ovarian = system: OVCAR-8 ovarian
SNB-75 CNS = system: SNB-75 CNS
SK-MEL-2 melanoma = system: SK-MEL-2 melanoma
LOX IMVI melanoma = system: LOX IMVI melanoma
NCI-H522 lung = system: NCI-H522 lung
OVCAR-5 ovarian = system: OVCAR-5 ovarian
NCI-H460 lung = system: NCI-H460 lung
HOP-92 NSCLC = system: HOP-92 NSCLC
UO-31 renal = system: UO-31 renal
TK-10 renal = system: TK-10 renal
BT-549 breast = system: BT-549 breast
MOLT-4 leukemia = system: MOLT-4 leukemia
NCI/ADR-RES ovarian = system: NCI/ADR-RES ovarian
SF-295 CNS = system: SF-295 CNS
CCRF-CEM leukemia = system: CCRF-CEM leukemia
A549 NSCLC = system: A549 NSCLC
HCT-116 colon = system: HCT-116 colon
SK-MEL-28 melanoma = system: SK-MEL-28 melanoma
HCC-2998 colon = system: HCC-2998 colon
A498 renal = system: A498 renal
NCI-H226 lung = system: NCI-H226 lung
MALME-3M melanoma = system: MALME-3M melanoma
T-47D breast = system: T-47D breast
HL-60(TB) leukemia = system: HL-60(TB) leukemia

COc1ccc(C/C=C(\C)CCO)cc1
TGI (HS 578T breast): > 100 µM
TGI (HCT-15 colon): > 100 µM
TGI (SNB-19 CNS): > 100 µM
TGI (SK-OV-3 ovarian): > 100 µM
TGI (M14 melanoma): > 100 µM
TGI (HT29 colon): > 100 µM
TGI (UACC-257 melanoma): > 100 µM
TGI (MDA-N): > 100 µM
TGI (ACHN renal): > 100 µM
TGI (HOP-62 NSCLC): > 100 µM
TGI (CAKI-1 renal): 94.3 µM
TGI (SF-539 CNS): > 100 µM
TGI (PC-3 prostate): > 100 µM
TGI (SR leukemia): > 100 µM
TGI (RPMI-8226 leukemia): 89.8 µM
TGI (MDA-MB-435): > 100 µM
TGI (OVCAR-3 ovarian): > 100 µM
TGI (DU-145 prostate): > 100 µM
TGI (COLO 205 colon): > 100 µM
TGI (RXF 393 renal): > 100 µM
TGI (SF-268 CNS): > 100 µM
TGI (K-562 leukemia): > 100 µM
TGI (KM12 colon): > 100 µM
TGI (SW-620 colon): > 100 µM
TGI (SN12C renal): > 100 µM
TGI (OVCAR-4 ovarian): > 100 µM
TGI (786-0 renal): > 100 µM
TGI (UACC-62 melanoma): > 100 µM
TGI (U251 CNS): > 100 µM
TGI (NCI-H23 lung): > 100 µM
TGI (EKVX NSCLC): > 100 µM
TGI (MCF7 breast): > 100 µM
TGI (MDA-MB-231 breast): > 100 µM
TGI (SK-MEL-5 melanoma): > 100 µM
TGI (IGROV1 ovarian): > 100 µM
TGI (OVCAR-8 ovarian): > 100 µM
TGI (SNB-75 CNS): > 100 µM
TGI (SK-MEL-2 melanoma): > 100 µM
TGI (LOX IMVI melanoma): > 100 µM
TGI (NCI-H522 lung): > 100 µM
TGI (OVCAR-5 ovarian): > 100 µM
TGI (NCI-H460 lung): > 100 µM
TGI (HOP-92 NSCLC): > 100 µM
TGI (UO-31 renal): > 100 µM
TGI (TK-10 renal): > 100 µM
TGI (BT-549 breast): > 100 µM
TGI (MOLT-4 leukemia): > 100 µM
TGI (NCI/ADR-RES ovarian): > 100 µM
TGI (SF-295 CNS): > 100 µM
TGI (CCRF-CEM leukemia): > 100 µM
TGI (A549 NSCLC): > 100 µM
TGI (HCT-116 colon): > 100 µM

CC(C)(C)c1ccc(NS(=O)(=O)c2ccc(N)cc2)cc1
TGI (HS 578T breast): 59.3 µM
TGI (HCT-15 colon): > 100 µM
TGI (SNB-19 CNS): > 100 µM
TGI (SK-OV-3 ovarian): 12.5 µM
TGI (M14 melanoma): 44.2 µM
TGI (HT29 colon): 35.3 µM
TGI (UACC-257 melanoma): > 100 µM
TGI (MDA-N): 54.7 µM
TGI (ACHN renal): 83.6 µM
TGI (HOP-62 NSCLC): 13.7 µM
TGI (CAKI-1 renal): 99.4 µM
TGI (SF-539 CNS): 41.7 µM
TGI (PC-3 prostate): 85.7 µM
TGI (SK-MEL-28 melanoma): 63.7 µM
TGI (RPMI-8226 leukemia): 30.6 µM
TGI (MDA-MB-435): 73.5 µM
TGI (OVCAR-3 ovarian): 12.9 µM
TGI (DU-145 prostate): 89.5 µM
TGI (COLO 205 colon): 29.6 µM
TGI (HCC-2998 colon): 39.5 µM
TGI (A498 renal): 46.4 µM
TGI (RXF 393 renal): 94.1 µM
TGI (SF-268 CNS): 78.2 µM
TGI (K-562 leukemia): 41.7 µM
TGI (KM12 colon): > 100 µM
TGI (SW-620 colon): 69 µM
TGI (SN12C renal): 48.6 µM
TGI (OVCAR-4 ovarian): > 100 µM
TGI (NCI-H226 lung): 45.8 µM
TGI (786-0 renal): 52.1 µM
TGI (UACC-62 melanoma): 30.3 µM
TGI (U251 CNS): 39.2 µM
TGI (NCI-H23 lung): 67.9 µM
TGI (EKVX NSCLC): 71.8 µM
TGI (MCF7 breast): 39 µM
TGI (MDA-MB-231 breast): 68.1 µM
TGI (SK-MEL-5 melanoma): 32.5 µM
TGI (IGROV1 ovarian): 45.2 µM
TGI (OVCAR-8 ovarian): 68.5 µM
TGI (SNB-75 CNS): 92.7 µM
TGI (SK-MEL-2 melanoma): 36.5 µM
TGI (MALME-3M melanoma): 39.6 µM
TGI (LOX IMVI melanoma): 33.1 µM
TGI (T-47D breast): > 100 µM
TGI (HL-60(TB) leukemia): 38.1 µM
TGI (NCI-H522 lung): 38.7 µM
TGI (OVCAR-5 ovarian): 84.3 µM
TGI (NCI-H460 lung): > 100 µM
TGI (UO-31 renal): 73.5 µM
TGI (TK-10 renal): > 100 µM
TGI (BT-549 breast): 54.8 µM
TGI (MOLT-4 leukemia): 34.5 µM
TGI (NCI/ADR-RES ovarian): 75.9 µM
TGI (SF-295 CNS): 14 µM
TGI (CCRF-CEM leukemia): 40.2 µM
TGI (A549 NSCLC): > 100 µM
TGI (HCT-116 colon): 34.7 µM
